Data: patent publication US20200206233A1 (INTEGRAL BIOSCIENCES PRIVATE LIMITED, priority 2018, published 2020)

Assays:
IDH1 mutant (R132H) = biological target: T1, IDH1 mutant (R132H) (Homo sapiens, UniProt O75874, R132H); assay: Mutant IDH1-R132H Fluorescence Assay (Resazurin based); type: biochemical; conditions: 10 nM IDH1 R132H, 4 mM α-ketoglutarate, NADPH, 1.5 h at room temperature
T1 construct: purchased BPS Bioscience 71099-2
In short: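 Recombinant IDH1 R132H (10 nM) was run with α-ketoglutarate (4 mM) and NADPH ([…]) for 1.5 h at room temperature in Tris pH buffer with MgCl2, BSA and mercaptoethanol. Remaining NADPH was detected via diaphorase/resazurin fluorescence (ex 540/em 590 nm). IC50 came from a 4-parameter logistic fit.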

IDH1-WT = biological target: T2, IDH1-WT (Homo sapiens, UniProt O75874); assay: IDH1-WT Fluorescence Assay (Resazurin based); type: biochemical; conditions: 1 nM IDH1-WT, 200 μM isocitrate, 15 μM NADP+, 30 min at room temperature
T2 construct: purchased BPS Bioscience 71075-2
In short: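 Compounds (3-fold dilutions, 0.5% DMSO) preincubated 5 min with 200 μM isocitrate and 15 μM NADP+ in Tris/MgCl2 buffer, then 1 nM IDH1-WT added for 30 min at room temperature in the dark. NADPH detected via resazurin/diaphorase (15 min, ex 540/em 590 nm); IC50 by four-parameter logistic fit of % inhibition.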

IDH2 mutant (R140Q) = biological target: T3, IDH2 mutant (R140Q) (Homo sapiens, UniProt P48735, R140Q); assay: Mutant IDH2-R140Q Fluorescence Assay (Resazurin based); type: biochemical; conditions: 5 nM IDH2 R140Q, 4 hr pre-incubation, 1 mM α-ketoglutarate, 5 μM NADPH, 2 h
T3 construct: purchased BPS Bioscience 71100-2
T3 sequence (P48735 40-452 R140Q): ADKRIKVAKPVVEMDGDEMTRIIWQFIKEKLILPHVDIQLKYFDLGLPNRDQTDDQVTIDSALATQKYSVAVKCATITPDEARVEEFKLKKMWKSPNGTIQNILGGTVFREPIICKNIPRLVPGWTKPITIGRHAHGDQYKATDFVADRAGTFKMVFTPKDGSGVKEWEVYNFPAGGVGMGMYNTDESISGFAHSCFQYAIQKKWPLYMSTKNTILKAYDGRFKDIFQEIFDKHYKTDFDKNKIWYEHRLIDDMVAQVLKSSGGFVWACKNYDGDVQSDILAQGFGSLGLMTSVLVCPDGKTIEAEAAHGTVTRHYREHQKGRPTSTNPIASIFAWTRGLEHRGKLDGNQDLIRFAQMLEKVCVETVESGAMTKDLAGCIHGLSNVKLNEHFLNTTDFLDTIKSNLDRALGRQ
In short: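 Recombinant IDH2 R140Q (5 nM) pre-incubated 4 h at 25 °C with 3-fold diluted compounds in Tris/NaCl/MgCl2 buffer, then 2 h reaction with 1 mM α-ketoglutarate and 5 μM NADPH. Remaining NADPH detected via diaphorase/resazurin fluorescence (ex 540/em 590 nm); IC50 from four-parameter logistic fit of % inhibition vs DMSO and no-enzyme controls.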

[1] = biological target: T4, mutant IDH1 (R132C) HT1080 cells (Homo sapiens, UniProt O75874, R132C); assay: Cellular 2-HG assay using mutant IDH1 (R132C) HT1080 cells; type: cell-based; conditions: 48 h treatment, 0.003 to 3 μM, 2-HG in cell culture media
T4 construct: host or cells: HT1080
Procedure: HT1080 (ATCC® CCL-121™) cells were plated in a 12 well plate (Nunc™ Cell-Culture Treated Multidish; Cat #150628) at a cell density of 5×10^4 cells/well. Cells were then treated with various concentrations of test/reference compounds (ranging from 0.003 to 3 μM) or vehicle for 48 h under cell culture conditions (in CO2 incubator, 5% CO2, 37° C.). Metabolites were extracted from cell culture media by precipitation method and IC50 values of compounds were determined by Resazurin based Fluorescence assay. Assay buffer contained 100 mM HEPES pH 8.0, 100 μM NAD^+ (Sigma; Cat # N1630-100MG), […] HGDH, 5 μM resazurin (Cat #62758-13-8, Sigma) and 0.01 U/ml diaphorase (Cat # D2197-300UN, Sigma). Total assay volume was 100 μl. 75 μl of assay buffer was added to 25 μl sample volume (supernatant) and incubated at RT in the dark for 30 min in black 96-well plates (Thermo Scientific). Fluorometric detection was done using a Synergy Neo Plate reader (BioTek, Winooski) at single excitation of 540 nm and emission at 590 nm respectively).
The % activity of test samples was calculated as (Sample−Min)×100/(Max−Min). [Max: DMSO control, complete reaction with enzyme with DMSO and Min: No enzyme with DMSO]. Percent inhibition (100−% activity) was fitted to the “four-parameter logistic model” in XLfit for determination of IC50 values.

T1 sequence (O75874 whole entry R132H): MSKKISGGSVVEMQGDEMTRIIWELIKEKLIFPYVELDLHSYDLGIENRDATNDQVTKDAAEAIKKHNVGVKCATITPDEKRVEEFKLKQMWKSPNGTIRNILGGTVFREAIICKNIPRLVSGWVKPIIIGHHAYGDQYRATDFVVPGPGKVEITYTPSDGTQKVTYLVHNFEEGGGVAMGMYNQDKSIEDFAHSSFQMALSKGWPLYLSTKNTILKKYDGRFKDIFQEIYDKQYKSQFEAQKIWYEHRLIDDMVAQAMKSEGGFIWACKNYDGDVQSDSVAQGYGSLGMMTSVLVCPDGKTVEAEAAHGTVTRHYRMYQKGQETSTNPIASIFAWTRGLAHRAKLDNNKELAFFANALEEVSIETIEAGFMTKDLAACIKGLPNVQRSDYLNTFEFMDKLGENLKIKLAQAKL
T4 sequence (O75874 2-414 R132C limits assumed): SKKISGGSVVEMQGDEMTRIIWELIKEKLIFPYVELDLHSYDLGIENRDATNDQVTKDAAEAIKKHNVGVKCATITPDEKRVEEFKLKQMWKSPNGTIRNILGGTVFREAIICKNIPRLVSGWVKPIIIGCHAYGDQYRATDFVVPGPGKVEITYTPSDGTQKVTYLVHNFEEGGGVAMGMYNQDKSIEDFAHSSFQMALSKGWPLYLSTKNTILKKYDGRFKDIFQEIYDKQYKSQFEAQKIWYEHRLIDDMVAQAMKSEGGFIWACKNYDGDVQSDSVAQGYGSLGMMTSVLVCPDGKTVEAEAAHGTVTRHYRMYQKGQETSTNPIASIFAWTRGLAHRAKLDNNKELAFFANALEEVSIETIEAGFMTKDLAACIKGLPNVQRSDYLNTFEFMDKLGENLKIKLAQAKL
T2 sequence (O75874 whole entry): as the sequence (O75874 whole entry R132H) above, with H132R counted along it

Row | SMILES | IC50 (IDH1 mutant (R132H)) | IC50 (IDH1-WT) | IC50 (IDH2 mutant (R140Q)) | IC50 [1]
1 | CC[C@H]1COC(=O)N1c1nc(C)nc(N[C@@H](C)c2cn(-c3ccc(Cl)cc3)cn2)n1 [Compound 1.50, (S)-3-(4-((S)-1-(1-(4-chlorophenyl)-1H-imidazol-4-yl)ethylamino)-6-methyl-1,3,5-triazin-2-yl)-4-ethyloxazolidin-2-one] | 456 nM | > 50 µM | > 50 µM | 413 nM
2 | Cc1nc(N[C@@H](C)c2cc3cc(Cl)ccc3[nH]c2=O)nc(N2C(=O)OC[C@@H]2[C@H](C)F)n1 [Compound 1.59, (R)-3-(4-((S)-1-(6-chloro-2-oxo-1,2-dihydroquinolin-3-yl)ethylamino)-6-methyl-1,3,5-triazin-2-yl)-4-((S)-1-fluoroethyl) oxazolidin-2-one] | 178 nM | > 50 µM | > 50 µM | 271 nM
3 | Cc1nc(N[C@@H](C)c2ccc(Oc3ccccc3)cc2)nc(N2C(=O)OC[C@@H]2[C@H](C)F)n1 [Compound 1.64, (R)-4-((S)-1-fluoroethyl)-3-(4-methyl-6-((S)-1-(4-phenoxyphenyl)ethylamino)-1,3,5-triazin-2-yl)oxazolidin-2-one] | 227 nM | > 50 µM | > 50 µM | 36 nM
4 | CC[C@H]1COC(=O)N1c1nc(C)nc(N[C@@H](C)c2cc3cc(Cl)c(OC(C)C)cc3[nH]c2=O)n1 [Compound 1.104, (S)-3-(4-((S)-1-(6-chloro-7-isopropoxy-2-oxo-1,2-dihydroquinolin-3-yl)ethylamino)-6-methyl-1,3,5-triazin-2-yl)-4-ethyloxazolidin-2-one] | 75 nM | > 50 µM | > 50 µM | 94 nM
